Experimental data published in ChEMBL document CHEMBL3784971, “Synthesis, characterization, antimicrobial and biofilm inhibitory studies of new esterquats” (Bioorg Med Chem Lett, 2016).
Values after ≈ are worked out from the molar mass of the structure shown. Values belong to the molecule of their own block, whether it stands above or below them.

Columns and labels:
Format in all cases: functional
Raoultella planticola [1] = assay: Bactericidal activity against Klebsiella planticola MTCC 530 after 24 hrs by serial dilution method; settings: MTCC 530, 24 h
Escherichia coli [2] = assay: Antimicrobial activity against Escherichia coli MTCC 739 assessed as growth inhibition after 24 hrs by agar well diffusion method; settings: MTCC 739, 24 h
Bacillus subtilis [3] = assay: Bactericidal activity against Bacillus subtilis MTCC 121 after 24 hrs by serial dilution method; settings: MTCC 121, 24 h
Bacillus subtilis [4] = assay: Antimicrobial activity against Bacillus subtilis MTCC 121 assessed as growth inhibition after 24 hrs by agar well diffusion method; settings: MTCC 121, 24 h
Micrococcus luteus [5] = assay: Antimicrobial activity against Micrococcus luteus MTCC 2470 assessed as growth inhibition after 24 hrs by agar well diffusion method; settings: MTCC 2470, 24 h
Staphylococcus aureus [6] = assay: Bactericidal activity against Staphylococcus aureus MTCC 96 after 24 hrs by serial dilution method; settings: MTCC 96, 24 h
Micrococcus luteus [7] = assay: Bactericidal activity against Micrococcus luteus MTCC 2470 after 24 hrs by serial dilution method; settings: MTCC 2470, 24 h
Staphylococcus aureus [8] = assay: Antimicrobial activity against Staphylococcus aureus MTCC 96 assessed as growth inhibition after 24 hrs by agar well diffusion method; settings: MTCC 96, 24 h
Escherichia coli [9] = assay: Bactericidal activity against Escherichia coli MTCC 739 after 24 hrs by serial dilution method; settings: MTCC 739, 24 h
Staphylococcus aureus [10] = assay: Antimicrobial activity against Staphylococcus aureus MLS16 MTCC 2940 assessed as growth inhibition after 24 hrs by agar well diffusion method; settings: MLS16 MTCC 2940, 24 h
Pseudomonas aeruginosa = assay: Antimicrobial activity against Pseudomonas aeruginosa MTCC 2453 assessed as growth inhibition after 24 hrs by agar well diffusion method; settings: MTCC 2453, 24 h
Candida albicans [11] = assay: Antimicrobial activity against Candida albicans MTCC 3017 assessed as growth inhibition after 24 hrs by agar well diffusion method; settings: MTCC 3017, 24 h
Staphylococcus aureus [12] = assay: Bactericidal activity against Staphylococcus aureus MLS16 MTCC 2940 after 24 hrs by serial dilution method; settings: MLS16 MTCC 2940, 24 h
Raoultella planticola [13] = assay: Antimicrobial activity against Klebsiella planticola MTCC 530 assessed as growth inhibition after 24 hrs by agar well diffusion method; settings: MTCC 530, 24 h
Candida albicans [14] = assay: Antimicrobial activity against Candida albicans MTCC 1637 assessed as growth inhibition after 24 hrs by agar well diffusion method; settings: MTCC 1637, 24 h
Candida albicans [15] = assay: Fungicidal activity against Candida albicans MTCC 227 after 24 hrs by serial dilution method; settings: MTCC 227, 24 h
Candida albicans [16] = assay: Fungicidal activity against Candida albicans MTCC 3958 after 24 hrs by serial dilution method; settings: MTCC 3958, 24 h
Pichia kudriavzevii [17] = assay: Antimicrobial activity against Candida krusei MTCC 3020 assessed as growth inhibition after 24 hrs by agar well diffusion method; settings: MTCC 3020, 24 h
Candida parapsilosis [18] = assay: Fungicidal activity against Candida parapsilosis MTCC 1744 after 24 hrs by serial dilution method; settings: Lodderomyces parapsilosis, MTCC 1744, 24 h
[Candida] aaseri [19] = Fungicidal activity against Candida aaseri MTCC 1962 after 24 hrs by serial dilution method; settings: Yamadazyma aaseri, MTCC 1962, 24 h
Candida parapsilosis [20] = assay: Antimicrobial activity against Candida parapsilosis MTCC 1744 assessed as growth inhibition after 24 hrs by agar well diffusion method; settings: Lodderomyces parapsilosis, MTCC 1744, 24 h
Candida albicans [21] = assay: Fungicidal activity against Candida albicans MTCC 3017 after 24 hrs by serial dilution method; settings: MTCC 3017, 24 h
Candida albicans [22] = assay: Antimicrobial activity against Candida albicans MTCC 183 assessed as growth inhibition after 24 hrs by agar well diffusion method; settings: MTCC 183, 24 h
Candida albicans [23] = assay: Antimicrobial activity against Candida albicans MTCC 227 assessed as growth inhibition after 24 hrs by agar well diffusion method; settings: MTCC 227, 24 h
Candida albicans [24] = assay: Antimicrobial activity against Candida albicans MTCC 3958 assessed as growth inhibition after 24 hrs by agar well diffusion method; settings: MTCC 3958, 24 h
Candida albicans [25] = assay: Fungicidal activity against Candida albicans MTCC 854 after 24 hrs by serial dilution method; settings: MTCC 854, 24 h
Candida albicans [26] = assay: Fungicidal activity against Candida albicans MTCC 3018 after 24 hrs by serial dilution method; settings: MTCC 3018, 24 h
Candida albicans [27] = assay: Fungicidal activity against Candida albicans MTCC 4748 after 24 hrs by serial dilution method; settings: MTCC 4748, 24 h
Candida albicans [28] = assay: Fungicidal activity against Candida albicans MTCC 7315 after 24 hrs by serial dilution method; settings: MTCC 7315, 24 h
Candida albicans [29] = assay: Antimicrobial activity against Candida albicans MTCC 7315 assessed as growth inhibition after 24 hrs by agar well diffusion method; settings: MTCC 7315, 24 h
Candida albicans [30] = assay: Antimicrobial activity against Candida albicans MTCC 4748 assessed as growth inhibition after 24 hrs by agar well diffusion method; settings: MTCC 4748, 24 h
Candida albicans [31] = assay: Antimicrobial activity against Candida albicans MTCC 3018 assessed as growth inhibition after 24 hrs by agar well diffusion method; settings: MTCC 3018, 24 h
Pichia sporocuriosa [32] = assay: Fungicidal activity against Issatchenkia hanoiensis MTCC 4755 after 24 hrs by serial dilution method; settings: MTCC 4755, 24 h
Candida albicans [33] = assay: Fungicidal activity against Candida albicans MTCC 1637 after 24 hrs by serial dilution method; settings: MTCC 1637, 24 h
Candida albicans [34] = assay: Antimicrobial activity against Candida albicans MTCC 854 assessed as growth inhibition after 24 hrs by agar well diffusion method; settings: MTCC 854, 24 h
[Candida] aaseri [35] = Antimicrobial activity against Candida aaseri MTCC 1962 assessed as growth inhibition after 24 hrs by agar well diffusion method; settings: Yamadazyma aaseri, MTCC 1962, 24 h
Candida albicans [36] = assay: Fungicidal activity against Candida albicans MTCC 183 after 24 hrs by serial dilution method; settings: MTCC 183, 24 h
Nakaseomyces glabratus [37] = assay: Fungicidal activity against Candida glabrata MTCC 3019 after 24 hrs by serial dilution method; settings: MTCC 3019, 24 h
Pichia sporocuriosa [38] = assay: Antimicrobial activity against Issatchenkia hanoiensis MTCC 4755 assessed as growth inhibition after 24 hrs by agar well diffusion method; settings: MTCC 4755, 24 h
Pichia kudriavzevii [39] = assay: Fungicidal activity against Candida krusei MTCC 3020 after 24 hrs by serial dilution method; settings: MTCC 3020, 24 h
Nakaseomyces glabratus [40] = assay: Antimicrobial activity against Candida glabrata MTCC 3019 assessed as growth inhibition after 24 hrs by agar well diffusion method; settings: MTCC 3019, 24 h

MIC (Escherichia coli [2]): > 125 µg/mL
MIC (Bacillus subtilis [4]): > 125 µg/mL
MIC (Micrococcus luteus [5]): > 125 µg/mL
MIC (Staphylococcus aureus [8]): > 125 µg/mL
MIC (Staphylococcus aureus [10]): > 125 µg/mL
MIC (Pseudomonas aeruginosa): > 125 µg/mL
MIC (Candida albicans [11]): > 125 µg/mL
Structure (SMILES): CCCCCCCCCCCCCCCCCC[N+](C)(C)CCCCCCCCCCC(=O)OC.[Cl-]
MBC (Raoultella planticola [1]): > 125 µg/mL
MBC (Bacillus subtilis [3]): > 125 µg/mL
MBC (Staphylococcus aureus [6]): > 125 µg/mL
MBC (Micrococcus luteus [7]): > 125 µg/mL
MBC (Escherichia coli [9]): > 125 µg/mL
MBC (Staphylococcus aureus [12]): > 125 µg/mL
MIC (Raoultella planticola [13]): > 125 µg/mL

MIC (Escherichia coli [2]): > 125 µg/mL
MIC (Bacillus subtilis [4]): > 125 µg/mL
MIC (Micrococcus luteus [5]): > 125 µg/mL
MIC (Staphylococcus aureus [8]): > 125 µg/mL
MIC (Staphylococcus aureus [10]): > 125 µg/mL
MIC (Pseudomonas aeruginosa): > 125 µg/mL
MIC (Candida albicans [11]): > 125 µg/mL
Structure (SMILES): CCCCCCCCCCCCCCCCCC[N+](C)(CCCCCCCCCCC(=O)OC)CCCCCCCCCCC(=O)OC.[Cl-]
MBC (Raoultella planticola [1]): > 125 µg/mL
MBC (Bacillus subtilis [3]): > 125 µg/mL
MBC (Staphylococcus aureus [6]): > 125 µg/mL
MBC (Micrococcus luteus [7]): > 125 µg/mL
MBC (Escherichia coli [9]): > 125 µg/mL
MBC (Staphylococcus aureus [12]): > 125 µg/mL
MIC (Raoultella planticola [13]): > 125 µg/mL

MIC (Candida albicans [14]): 7.8 µg/mL (≈ 18.7 µM)
MIC (Pichia kudriavzevii [17]): 7.8 µg/mL (≈ 18.7 µM)
MIC (Candida parapsilosis [20]): 7.8 µg/mL (≈ 18.7 µM)
MIC (Candida albicans [22]): 7.8 µg/mL (≈ 18.7 µM)
MIC (Candida albicans [23]): 7.8 µg/mL (≈ 18.7 µM)
MIC (Candida albicans [24]): 7.8 µg/mL (≈ 18.7 µM)
MIC (Candida albicans [29]): 7.8 µg/mL (≈ 18.7 µM)
MIC (Candida albicans [30]): 7.8 µg/mL (≈ 18.7 µM)
MIC (Candida albicans [31]): 7.8 µg/mL (≈ 18.7 µM)
MIC (Candida albicans [34]): 7.8 µg/mL (≈ 18.7 µM)
MIC ([Candida] aaseri [35]): 7.8 µg/mL (≈ 18.7 µM)
MIC (Candida albicans [11]): 7.8 µg/mL (≈ 18.7 µM)
MIC (Pichia sporocuriosa [38]): 7.8 µg/mL (≈ 18.7 µM)
MIC (Nakaseomyces glabratus [40]): 7.8 µg/mL (≈ 18.7 µM)
Structure (SMILES): Clc1ccc(COC(Cn2ccnc2)c2ccc(Cl)cc2Cl)c(Cl)c1 (stereo unspecified) [MICONAZOLE]
MFC (Candida albicans [15]): 15.6 µg/mL (≈ 37.5 µM)
MFC (Candida albicans [16]): 15.6 µg/mL (≈ 37.5 µM)
MFC (Candida parapsilosis [18]): 7.8 µg/mL (≈ 18.7 µM)
MFC ([Candida] aaseri [19]): 7.8 µg/mL (≈ 18.7 µM)
MFC (Candida albicans [21]): 7.8 µg/mL (≈ 18.7 µM)
MFC (Candida albicans [25]): 15.6 µg/mL (≈ 37.5 µM)
MFC (Candida albicans [26]): 7.8 µg/mL (≈ 18.7 µM)
MFC (Candida albicans [27]): 7.8 µg/mL (≈ 18.7 µM)
MFC (Candida albicans [28]): 7.8 µg/mL (≈ 18.7 µM)
MFC (Pichia sporocuriosa [32]): 7.8 µg/mL (≈ 18.7 µM)
MFC (Candida albicans [33]): 15.6 µg/mL (≈ 37.5 µM)
MFC (Candida albicans [36]): 7.8 µg/mL (≈ 18.7 µM)
MFC (Nakaseomyces glabratus [37]): 15.6 µg/mL (≈ 37.5 µM)
MFC (Pichia kudriavzevii [39]): 7.8 µg/mL (≈ 18.7 µM)
